Read-outs that look alike come from different tables or passages of the source. Peptide text beside a SMILES is read from it. * marks the point of attachment. FITC = O=C1OC2(c3ccc(O)cc3Oc3cc(O)ccc32)c2ccc(NC(=S)*)cc21; Farnesyl = CC(C)=CCC/C(C)=C/CC/C(C)=C/C*
Columns and labels:
[1] = test system: PDE6δ; test: Stopped-flow fluorescence polarization, dissociation of peptides from PDE6δ with and without Arl2/Arl3·GppNHp; assay type: binding; conditions: 1 μM PDE6δ, 0.2 μM labelled peptide, 100-fold excess unlabelled peptide, 20 °C, ± s.d., n=4
Source text: Towards an explanation for the possible sorting mechanism that leaves some PDE6δ-cargo in the cell body but allows others to be enriched in the cilia we turned to the release activities of Arl2 and Arl3. […] While Arl2 is a non-ciliary protein, Arl3 localizes along the length of the cilium. Using fluorescence polarization, we measured the release of INPP5E and Rheb peptides from PDE6δ by the addition of Arl2 or Arl3 bound to the non-hydrolysable GTP analogue GppNHp. […] To compare the cargo release kinetics of Arl2·GppNHp and Arl3·GppNHp, we measured the dissociation rate constants of INPP5E and Rheb peptides from PDE6δ in the presence and absence of Arl3·GppNHp or Arl2·GppNHp, by adding a large excess of unlabelled peptide to silence the back reaction. […] The presence of Arl3·GppNHp or Arl2·GppNHp has a similar acceleration effect on the dissociation rate of Rheb peptide from PDE6δ (koff=27.2±0.7 and 15.3±0.3 s^−1, respectively, ±indicates s.d., n=4) (Fig. 2c,d).
Figure 2 INPP5E release from PDE6δ by Arl2·GppNHp and Arl3·GppNHp. (a) Fluorescence polarization measurements of 0.5 μM FITC-labelled Rheb peptide followed by addition of 0.5 μM PDE6δ and the addition of 5 μM Arl2·GppNHp or Arl3·GppNHp (arrow). (b) Fluorescence polarization measurements of 0.2 μM TAMRA-labelled INPP5E peptide followed by the addition of 0.2 μM PDE6δ (arrow) and 5 μM Arl2·GppNHp or Arl3·GppNHp (arrow). (c–f) Stopped-flow fluorescence polarization kinetic experiment where complexes of 1 μM PDE6δ with either 0.2 μM of FITC-labelled Rheb peptide (c,d) or TAMRA-labelled farnesylated INPP5E peptide (e,f) were mixed with 100-fold excess of unlabelled peptide and 10 μM of Arl2 (c,e) or Arl3 (d,f) as indicated.
(§1) All fluorescence polarization measurements were performed at 20 °C in a buffer containing 25 mM Tris-HCl (pH 7.5), 50 mM NaCl and 3 mM DTE. […]

[2] = test system: PDE6δ/farnesylated peptide complex; test: Fluorescence polarization release of farnesylated peptide from PDE6δ by Arl proteins; assay type: biochemical
Source text: Towards an explanation for the possible sorting mechanism that leaves some PDE6δ-cargo in the cell body but allows others to be enriched in the cilia we turned to the release activities of Arl2 and Arl3. […] While Arl2 is a non-ciliary protein, Arl3 localizes along the length of the cilium. Using fluorescence polarization, we measured the release of INPP5E and Rheb peptides from PDE6δ by the addition of Arl2 or Arl3 bound to the non-hydrolysable GTP analogue GppNHp. […] To compare the cargo release kinetics of Arl2·GppNHp and Arl3·GppNHp, we measured the dissociation rate constants of INPP5E and Rheb peptides from PDE6δ in the presence and absence of Arl3·GppNHp or Arl2·GppNHp, by adding a large excess of unlabelled peptide to silence the back reaction. […]
Figure 2 INPP5E release from PDE6δ by Arl2·GppNHp and Arl3·GppNHp. (a) Fluorescence polarization measurements of 0.5 μM FITC-labelled Rheb peptide followed by addition of 0.5 μM PDE6δ and the addition of 5 μM Arl2·GppNHp or Arl3·GppNHp (arrow). (b) Fluorescence polarization measurements of 0.2 μM TAMRA-labelled INPP5E peptide followed by the addition of 0.2 μM PDE6δ (arrow) and 5 μM Arl2·GppNHp or Arl3·GppNHp (arrow). […]
as §1
Arl3•GTP. Fluorescence polarization measurements of 0.2 µM TAMRA-labeled […]

[3] = test system: PDE6δ; test: Stopped-flow fluorescence polarization kinetics of mantGppNHp-loaded Arl proteins with PDE6δ; assay type: binding; conditions: for association rate constant kon with PDE6δ: 0.2 μM mantGppNHp-loaded Arl protein, increasing PDE6δ; for association rate constant kon with PDE6δ / dissociation rate constant koff from PDE6δ: 20 °C; for association rate constant kon with PDE6δ / dissociation rate constant koff from PDE6δ / Kd: n=4; for dissociation rate constant koff from PDE6δ: 2 μM PDE6δ with 0.2 μM mantGppNHp-loaded Arl protein, 200-fold excess unlabelled Arl protein; for Kd: calculated from kinetic constants, ± s.d., read-out: equilibrium dissociation constant Kd with PDE6δ (Kd=koff/kon)
Procedure: Previously we have shown that the N-terminal helix of Arl3 is important to release myristoylated cargo from a complex with the shuttle factor UNC119 (ref. [30]). To find out whether the N-terminus of Arl3 and/or Arl2 has a similar if any role in the interaction with PDE6δ, fluorescence polarization measurements using full-length Arl3 (Arl3^fl) or an N-terminal truncated form (Arl3^ΔN) were performed. […] To investigate the role of the N-terminal helix of Arl3 in the release mechanism, we measured association and dissociation rate constants to determine the affinity of PDE6δ towards Arl2 and Arl3 in both full-length and N-terminal truncated forms. Association rate constants between the four proteins Arl3^fl, Arl3^ΔN, Arl2^fl and Arl2^ΔN are rather similar although association is almost twice as fast for full-length Arl3 as compared with Arl2 (Fig. 3a,b). […] The Kd values for Arl2^fl and Arl3^fl differ from previously determined values, likely because of the different techniques used.
Figure 3 Contribution of the N-terminal helix of Arl3 to the binding affinity with PDE6δ. (a) Stopped-flow fluorescence polarization kinetic measurements of the association of 0.2 μM mantGppNHp loaded Arl proteins with increasing concentrations of PDE6δ. The observed pseudo-first order rate constants (kobs) are plotted against PDE6δ concentration. (b) Bar charts of the association rate constants (kon) determined in a. (c,d) Stopped-flow fluorescence polarization kinetic experiments where complexes of 2 μM PDE6δ with 0.2 μM of full-length (Arl^fl) or N-terminally deleted (Arl^ΔN) mantGppNHp loaded Arl proteins as indicated were mixed with 200-fold excess of unlabelled Arl proteins to determine koff. (e) Bar charts of the dissociation rate constants (koff) from experiments in c,d. (f) Bar charts of the equilibrium dissociation constants (Kd) of complexes between PDE6δ and Arl proteins as determined from the kinetic constants in c,e. Error bars indicate s.d., n=4. TEXT PRINTED IN THE PICTURE: (b) Arl3^fl: kon (μM^-1s^-1): 5.97 | (b) Arl3^ΔN: kon (μM^-1s^-1): 4.25 | (b) Arl2^fl: kon (μM^-1s^-1): 2.25 | (b) Arl2^ΔN: kon (μM^-1s^-1): 3.09 | (e) Arl3^fl: koff (s^-1): 0.035 | (e) Arl3^ΔN: koff (s^-1): 0.92 | (e) Arl2^fl: koff (s^-1): 0.33 | (e) Arl2^ΔN: koff (s^-1): 0.98 | (f) Arl3^fl: kd (nM): 5.84 | (f) Arl3^ΔN: kd (nM): 217 | (f) Arl2^fl: kd (nM): 149 | (f) Arl2^ΔN: kd (nM): 319
All fluorescence polarization measurements were performed at 20 °C in a buffer containing 25 mM Tris-HCl (pH 7.5), 50 mM NaCl and 3 mM DTE. For the titration measurement, data were recorded with Fluoromax-4 spectrophotometer (HORIBA Jobin Yvon, Munich, Germany) with excitation and emission wavelengths at 530 and 580 nm for TAMRA-labelled INPP5E peptide and at 495 and 520 nm for fluorescein-labelled Rheb peptide. The kinetic measurements were monitored by a stopped-flow apparatus (Applied Photophysics) in the polarization mode using an excitation wavelength of 366 nm and filter with 420 nm cutoff for mantGppNHp bound Arl protein, excitation wavelength of 495 nm and filter with 520 nm cutoff for fluorescein-labelled Rheb peptide and excitation wavelength of 530 nm and filter with 570 nm cutoff for TAMRA-labelled INPP5E peptide. Data analysis was done with GraFit 5.0 program (Erithracus Software). Concentrations used for each experiment are indicated in the corresponding figure legend.

Row | Compound | koff from PDE6δ in presence of Arl2·GppNHp ([1]; 10 μM Arl2·GppNHp) [s⁻¹] | koff from PDE6δ in presence of Arl3·GppNHp ([1]; 10 μM Arl3·GppNHp) [s⁻¹] | intrinsic dissociation rate koff from PDE6δ ([1]; absence of Arl2/3) [s⁻¹] | release of peptide from PDE6δ by Arl2·GppNHp or Arl3·GppNHp ([2]; 0.5 μM FITC-Rheb peptide + 0.5 μM PDE6δ or 0.2 μM TAMRA-INPP5E peptide + 0.2 μM PDE6δ, 5 μM Arl·GppNHp) | release of INPP5E peptide from PDE6δ by Arl3 form ([2]; 0.2 μM TAMRA-labelled INPP5E peptide, 0.2 μM PDE6δ, 5 μM Arl3fl or Arl3ΔN) | association rate constant kon with PDE6δ [3] [M⁻¹ s⁻¹] | association rate constant kon with PDE6δ ([3]; listed as Arl3^ΔN) [M⁻¹ s⁻¹] | dissociation rate constant koff from PDE6δ [3] [s⁻¹] | dissociation rate constant koff from PDE6δ ([3]; listed as Arl3^ΔN) [s⁻¹] | increase of affinity to PDE6δ by the N-terminal helix ([3]; Arl3 full-length versus ΔN) [fold] | Kd ([3]; listed as Arl3^ΔN) [nM] | Kd [3] [nM]
1 | COC(=O)[C@H](CSC/C=C(\C)CC/C=C(\C)CCC=C(C)C)NC(=O)[C@H](CO)NC(=O)[C@H](CO)NC(=O)[C@H](CCCCN)NC(=O)CNC(=O)[C@H](CCC(N)=O)NC(=O)[C@H](CO)NC(=S)Nc1ccc2c(c1)C(=O)OC21c2ccc(O)cc2Oc2cc(O)ccc21 [Rheb peptide] ({FITC}-SQGKSSC(Farnesyl)-OMe; N-terminus and C-terminus assumed) | 15.3 ± 0.3 | 27.2 ± 0.7 | 0.95 ± 0.004 | can be released by both Arl2·GppNHp and Arl3·GppNHp |  |  |  |  |  |  |  | 
2 | Arl3^fl: full-length Arl3, GppNHp or mantGppNHp loaded |  |  |  |  | unable to release the INPP5E peptide | 5.97e+06 | 4.25e+06 | 0.035 | 0.92 | 37 | 217 ± 4.3 | 5.84

— publication PMC5512577, “PDE6δ-mediated sorting of INPP5E into the cilium is determined by cargo-carrier affinity” (Nature Communications, 2016)
